For this assay, the target named is T1, Interleukin-1 receptor-associated kinase 4 (Homo sapiens, UniProt Q9NWZ3).
T1 sequence (Q9NWZ3 whole entry): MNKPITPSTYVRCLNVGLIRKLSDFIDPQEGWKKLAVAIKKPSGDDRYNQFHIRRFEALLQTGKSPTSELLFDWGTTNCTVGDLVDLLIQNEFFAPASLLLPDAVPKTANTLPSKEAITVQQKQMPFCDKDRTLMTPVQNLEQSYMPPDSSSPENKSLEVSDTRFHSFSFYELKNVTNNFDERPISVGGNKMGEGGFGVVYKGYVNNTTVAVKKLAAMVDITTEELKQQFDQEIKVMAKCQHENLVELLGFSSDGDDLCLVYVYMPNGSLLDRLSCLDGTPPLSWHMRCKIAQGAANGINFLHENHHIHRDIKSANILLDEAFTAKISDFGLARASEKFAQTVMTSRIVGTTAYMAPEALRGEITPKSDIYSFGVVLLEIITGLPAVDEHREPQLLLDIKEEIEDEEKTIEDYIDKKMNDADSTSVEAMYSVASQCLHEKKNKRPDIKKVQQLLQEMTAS
The assay can be described thus: Inhibition of recombinant human full length his-tagged IRAK4 expressed in insect cells using KKARFSRFAGSSPSQSSMVAR as peptide substrate preincubated for 15 mins followed by substrate addition and measured after 2 hrs in presence of ATP by LC-MS/MS analysis.

For the molecule `COc1cc2nn([C@H]3CC[C@H](n4ccnc4C(C)O)CC3)cc2cc1C(=O)Nc1cccn(C)c1=O` (stereo partly specified), the IC50 turned out to be 0.5 nM.
